Test results reported in publication doi:10.1101/2023.09.01.555951v1 (biorxiv, 2023).
Positions count from the first letter of the chain named.

Key:
[1] = target: T1, OpuAC (isolated SBD of OpuA) (Lactococcus lactis, UniProt Q7DAU8, K521C/S319C); assay: intrinsic tryptophan fluorescence titration; type: binding
T1 sequence (Q7DAU8 319-573 S319C/K521C): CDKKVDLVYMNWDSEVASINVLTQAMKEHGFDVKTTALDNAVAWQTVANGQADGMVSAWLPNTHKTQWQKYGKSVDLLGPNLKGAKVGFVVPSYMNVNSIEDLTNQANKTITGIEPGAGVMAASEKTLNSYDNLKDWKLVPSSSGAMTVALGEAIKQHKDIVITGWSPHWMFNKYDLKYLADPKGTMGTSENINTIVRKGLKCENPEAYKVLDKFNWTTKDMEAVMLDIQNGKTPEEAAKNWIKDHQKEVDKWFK

[2] = target: T2, OpuAC (isolated SBD of OpuA) (Lactococcus lactis, UniProt Q7DAU8); assay: intrinsic tryptophan fluorescence titration; type: binding
T2 sequence (Q7DAU8 319-573): T1 sequence (Q7DAU8 319-573 S319C/K521C) with C1S, C203K

Kd [1]: 4.3 ± 0.4 µM
Kd [2]: 4.4 ± 0.1 µM
Compound: C[N+](C)(C)CC(=O)[O-] [glycine betaine]
